Experimental data published in patent publication US4661484A, “Pyridazinone derivatives and salts thereof as cardiac stimulants” (Mitsubishi Chemical Industries Limited, priority 1984, dated 1987).

Columns and labels:
papillary muscle of dog = assay: Effect on contraction of an isolated and cross-circulated papillary muscle preparation of the dog; details: Canis lupus familiaris; dosage 30 μg i.a.; read-out: Contraction of papillary muscle of dog, increase
Protocol: 1. Effect on contraction of an isolated and cross-circulated papillary muscle preparation of the dog
An isolated and cross-circulated papillary muscle preparation of the dog was prepared by Endo and Hashimoto's method (referred to American Journal of Physiology, 218, 1459-1463, 1970). The effect of the compound was measured by closely intraarterially injecting the compound dissolved in a solvent to the papillary muscle for the purpose of recording its effect on contraction of papillary muscle.

[1] = system: left atrium of the guinea pig; assay: Effect on contraction of an isolated left atrium of the guinea pig; details: Cavia porcellus; dosage 10^-5 g/ml; read-out: Contraction of left atrium of guinea pig, increase
Protocol: 2. Effect on contraction of an isolated left atrium of the guinea pig
A left atrium was isolated from a male guinea pig with 200-300 g of body weight soon after striking on the back of its head. The mitral orifice was fixed to the bottom of an organ bath filled with 30 ml of Krebs-Henseleit solution maintained at 35° C. A gas mixture comprising 95% of O2 and 5% of CO2 was passed through the Krebs-Henseleit solution in the organ bath. Isometric tension was measured by connecting a left auricle of heart and a transducer by a yarn. A resting tension of 0.5 g was given to the atrium, which was then electrically driven with square pulses with duration of 1 msec and voltage of 1.5 times as much as threshold in the rate of 2 Hz via dipolar platinum electrodes.
After stabilizing the atrium for 30 minutes from its preparation, the compound dissolved in a solvent was added to the organ bath to measure its effect.

[2] = system: myocardial contraction in anesthetized dogs; assay: Effects on myocardial contraction in anesthetized dogs; type: in vivo; details: anesthetized dog
Protocol: 3. Effects on myocardial contraction in anesthetized dogs
Male and female mongrel dogs with body weight of 8-15 kg were used. A dog was anesthetized by intraveneous injection of 30 mg/kg of sodium pentobarbital and practiced artificial respiration. The dog was thoractomized between fourth and fifth costa which was cut off. The pericardium was incised to expose heart. Blood flow through the aorta, which was measured with an electromagnetic blood flowmeter whose probe was attached to the ascending aorta, was used as an approximate index of cardiac output (CO). Left ventricular pressure (LVP) was measured with a Miller Catheter-tip pressure transducer and the first derivative of the LVP (dP/dt) was measured with a differentiater. Contraction of right ventricular muscle (Cont) was determined with a strain-gauge attached to the wall. Systemic blood pressure was measured from the left femoral artery. Heart rate was measured with electrocardiogram (lead II) and a cardiotachometer. The compound dissolved in a solvent was administered intravenously from a left femoral vein.

[3] = Acute toxicity (LD50), intravenous, male mice; details: mouse, in vivo, i.v.
Protocol: Acute toxicity (LD50) for intravenous administration in male mice was determined by the method of […] and Wilcoxon (referred to Journal of Pharmacology and Experimental Therapeutics, 96, 99-113, 1949).

For `O=c1ccc(-c2ccc(Nc3ccncc3)cc2)n[nH]1` [Example I, 6-[4-(4'-pyridyl)aminophenyl]-3(2H)-pyridazinone], the activation at 0.03 mg (papillary muscle of dog) was 12.4%, the activation at 10 µg/mL [1] was 163% and the “CO increase (cardiac output)” value ([2]; 30 μg/kg i.v.) was 13%. The “Cont increase (contraction of right ventricular muscle)” value ([2]; 30 μg/kg i.v.) was 31%, the dP/dt max increase ([2]; 30 μg/kg i.v.) was 64% and the “CO increase (cardiac output)” value ([2]; 100 μg/kg i.v.) was 11%. For the same compound, the “Cont increase (contraction of right ventricular muscle)” value ([2]; 100 μg/kg i.v.) was 39%, the dP/dt max increase ([2]; 100 μg/kg i.v.) was 108% and the LD50 [3] was 103 mg/kg.
